Results published in the METLIN SMRT retention time set (Domingo-Almenara et al. 2019).

Assay: gradient 5% acetonitrile 3 min, to 50% in 2 min, to 85% in 15 min, held 3 min, 100 µL/min
Settings: column: Zorbax Extend-C18 2.1 x 50 mm; eluents: water / acetonitrile, 0.1% formic acid
Summary of the method: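 In both positive and negative ionization mode, a quadrupole time-of-flight mass spectrometer coupled to HPLC analyzed pure standards run in mixtures of ~100 molecules. The Zorbax Extend-C18 column (2.1 × 50 mm, 1.8 μm) was operated at 100 μL/min with water and acetonitrile, each containing 0.1% formic acid. The dead volume was 40 μL and the dwell volume 900 μL. Retention time came from adduct peaks that were computationally picked and individually inspected by hand.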

Cc1ccsc1CN1CCc2[nH]nc(C(=O)N(C)C)c2C1
RP-LC retention time: 559 s

CCN(Cc1ccncc1)C1CN(C(=O)NCc2ccc(C)cc2)C1
RP-LC retention time: 591 s

CCOc1ccc(C(=O)NC2CCN(c3cc(-c4ccc(OC)cc4)[nH]n3)C2)cc1OCC (stereo not drawn)
RP-LC retention time: 742 s

CCc1cc(C(=O)N2CCN(CC(C)C)CC2)nc2cc(-c3ccccn3)nn12
RP-LC retention time: 610 s

CCOCCCNS(=O)(=O)c1cc(-c2ccno2)cs1
RP-LC retention time: 796 s

COc1ccc(C2C(C(=O)O)c3ccccc3C(=O)N2C)cc1 (stereo not drawn)
RP-LC retention time: 688 s

Cc1ccc(NS(=O)(=O)c2cc3n(c2)CCN(C(C)C)C3=O)cc1C
RP-LC retention time: 794 s

CCc1nn2c(CNC(=O)c3ccc(F)cc3)c(-c3ccccc3)nc2s1
RP-LC retention time: 914 s

COc1ccc(OC)c(S(=O)(=O)N2CCn3c(nn(CC4CC4)c3=O)C2)c1
RP-LC retention time: 734 s

CC(C)(C)c1ccc(OCC(=O)N(Cc2ccc(Br)o2)C2CCS(=O)(=O)C2)cc1 (stereo not drawn)
RP-LC retention time: 1060 s

CCOc1ccc(-c2cc3c(=O)n(Cc4nc(-c5ccc(Cl)c(F)c5)no4)ncn3n2)cc1
RP-LC retention time: 1270 s

CCCn1c(C)cnc1C1CN(S(=O)(=O)c2ccc(C)c(Cl)c2)C1
RP-LC retention time: 710 s

Cc1cc(Cl)ccc1OCc1nc(-c2cccc(-c3ccnn3C)c2)no1
RP-LC retention time: 1200 s

CCCCN1C(=O)C(NC(=O)c2cccc(OC)c2)(C(F)(F)F)C(C(=O)OC)=C1C (stereo not drawn)
RP-LC retention time: 988 s

Cc1ccccc1NC(=O)Cn1cnc2c(sc3nc(-c4ccccc4)ccc32)c1=O
RP-LC retention time: 961 s

Cc1cc(C)c(S(=O)(=O)N2CCCCC2C(=O)N2CCN(c3ccccc3F)CC2)c(C)c1 (stereo not drawn)
RP-LC retention time: 1250 s

COC(=O)c1cccc(Nc2c(-c3ccccc3)nc3cnc(Br)cn23)c1
RP-LC retention time: 949 s

O=C1CCN(C(=O)c2ccsc2)CCCOCCN1
RP-LC retention time: 586 s

COCC(=O)Nc1cc2c(cc1N1CCCCC1)n(C)c(=O)c(=O)n2C
RP-LC retention time: 775 s

C[C@@H]1CC[C@H]2[C@H](C)[C@H]3CC[C@@]4(O)[C@@H]5CC(=O)[C@H]6CC(=O)CC[C@]6(C)[C@H]5C[C@H]4[C@@H]3CN2C1
RP-LC retention time: 636 s

Cc1ccc2c(C(=O)N3CCN(CC(C)C)CC3)cc(NC(=O)C3CCC3)cc2n1
RP-LC retention time: 562 s

Cc1ccc(S(=O)(=O)N2C(=O)CCC2C(=O)NC2CCCCCC2)cc1C (stereo not drawn)
RP-LC retention time: 1010 s

CCCNS(=O)(=O)c1ccc(-c2cc(C(F)(F)F)on2)o1
RP-LC retention time: 1010 s

CCN1CCN(c2cc(C)c3cc(NC(=S)NCc4cccs4)ccc3n2)CC1
RP-LC retention time: 584 s

Cc1cc(=O)n(CC(=O)NCc2ccc(F)c(Cl)c2)c(N2CCCCC2)n1
RP-LC retention time: 716 s

COC(=O)c1c(-c2ccccc2)noc1NCc1ccc(C)o1
RP-LC retention time: 989 s

Fc1ccc(N2CCN(c3nnc(SCc4cccnc4)s3)CC2)cc1
RP-LC retention time: 633 s

O=C(Nc1ccc(N2CCN(C3CCCCC3)C2=O)nc1)c1ccc(F)cc1
RP-LC retention time: 926 s

O=C([C@@H]1C[C@H](F)CN1S(=O)(=O)c1ccc(F)cc1F)N1CCCCC1
RP-LC retention time: 812 s

Cc1cc(C)cc(Nc2ncccc2S(N)(=O)=O)c1
RP-LC retention time: 898 s

COc1ccccc1-c1noc(C2CCCN2C(=O)Nc2cccc(Cl)c2)n1 (stereo not drawn)
RP-LC retention time: 941 s

O=C(CN1C(=O)C2CCCCN2c2ccc(S(=O)(=O)N3CCCC3)cc21)NCc1cccs1 (stereo not drawn)
RP-LC retention time: 882 s

CC(=O)Nc1nc2ccc(CC(=O)NCCc3c[nH]c4ccc(Cl)cc34)cc2s1
RP-LC retention time: 747 s

Cc1cc(C)n(-c2ccnc(NCCc3ccccn3)n2)n1
RP-LC retention time: 596 s

CCCC[C@@H](C)/C=C(C)/C=C(\C)C(=O)NC1=C[C@@](O)(/C=C/C=C/C=C/C(=O)NC2=C(O)CCC2=O)[C@@H]2OC2C1=O (stereo partly drawn)
RP-LC retention time: 1250 s

O=C(c1ccc(OCC2CCCN(C(=O)C3CCCC3)C2)cc1)N1CCOCC1 (stereo not drawn)
RP-LC retention time: 750 s

COc1ccc(CCNC(=O)C2CCc3nc(N4CCCCC4)ncc3C2)cc1OC (stereo not drawn)
RP-LC retention time: 702 s

CCn1ncc(Cl)c1C(=O)N1CCCC1c1ccc(F)cc1 (stereo not drawn)
RP-LC retention time: 912 s

CCCC(=O)Nc1cc(-c2nc3ccc(C)cc3[nH]2)ccc1C
RP-LC retention time: 650 s

O=C(Cc1csc2nc(-c3ccccc3)cn12)Nc1ccc(Cl)cc1
RP-LC retention time: 868 s

Cc1cc2c(cc1S(=O)(=O)N1CCCC1C(=O)N1CCN(c3ccccc3)CC1)OCC(=O)N2 (stereo not drawn)
RP-LC retention time: 747 s

COc1ccc(Cl)cc1N1CC(c2nc(-c3ccc(C)cc3)no2)CC1=O (stereo not drawn)
RP-LC retention time: 1050 s

Cc1ccc(OCc2nc(Cc3nc(-c4ccccc4)oc3C)no2)cc1
RP-LC retention time: 1170 s

CCc1nnc(-c2ccc3ccn(CC(=O)NCc4ccccn4)c3c2)o1
RP-LC retention time: 629 s

CCOc1ccc(OCC)c(NS(=O)(=O)c2cc(-c3c(C)noc3NC(C)=O)ccc2OC)c1
RP-LC retention time: 864 s

O=C(CCc1nc(-c2ccc(N3CCCC3)cc2)no1)NCCCN1CCOCC1
RP-LC retention time: 655 s

COc1ccc(C(=O)Nc2nc(-c3ccc4c(c3)N(C)C(=O)CO4)cs2)cc1OC
RP-LC retention time: 785 s

CCc1nnc([C@@H]2CC(F)(F)CN2C(=O)CCn2cccn2)o1
RP-LC retention time: 639 s

Cc1ccc(-c2cn3c(n2)N(C(=O)c2sc(C)nc2C)CCC3)cc1
RP-LC retention time: 642 s

CCNC(=O)c1c(C)c(-c2ccccc2)n(C)c1C
RP-LC retention time: 1010 s

Cc1cc2c(N3CCCC(C(=O)NCc4ccc(F)cc4F)C3)nccc2s1 (stereo not drawn)
RP-LC retention time: 700 s

Cc1ccc(C2CCCN2C(=O)c2cc(-c3ccco3)on2)cc1 (stereo not drawn)
RP-LC retention time: 1020 s

O=C(Nc1ccccc1F)N1C[C@H]2C[C@H](C1)[C@H]1CCCC(=O)N1C2
RP-LC retention time: 627 s

CC1=C(c2ccc(Cl)cc2)S(=O)(=O)N=C1N1CCCN(C(=O)c2cccnc2)CC1
RP-LC retention time: 701 s

O=S(=O)(c1ccccc1)N1CCC(N2C[C@H](Oc3ccccc3)[C@@H]2c2ccncc2)CC1
RP-LC retention time: 733 s

CCCNC(=O)c1ccc(S(N)(=O)=O)cc1
RP-LC retention time: 653 s

Cc1ccc(C)c(S(=O)(=O)N2CCC(N3CCN(Cc4ccccc4)C(=O)C3=O)CC2)c1
RP-LC retention time: 861 s

COc1ccc(NC(=O)N2CCN(c3ccc(=O)n(-c4ccc(C)c(C)c4)n3)CC2)cc1OC
RP-LC retention time: 764 s

COc1cccc(-c2cc(NCc3ccc4c(c3)OCO4)nc(N)n2)c1
RP-LC retention time: 768 s

CCOC(=O)c1cccc(N2C=C(C(=O)N3CCCC3)S(=O)(=O)c3ccc(Cl)cc32)c1
RP-LC retention time: 901 s

Clc1cccc(-c2nc(-c3cccc(-c4ccn[nH]4)c3)no2)c1
RP-LC retention time: 1120 s

COCCn1c(CC2CCN(C(=O)Nc3cccc(Cl)c3C)C2)nc2cccnc21 (stereo not drawn)
RP-LC retention time: 631 s

Cc1ccc(-c2cc(NC(=O)Cc3ccsc3)on2)s1
RP-LC retention time: 966 s

O=c1c(=O)n(-c2ccccc2)ccn1Cc1nc(-c2ccc(Cl)cc2)no1
RP-LC retention time: 877 s

CN1CCN(c2ncncc2N2CCC(C(=O)NCc3ccc(F)cc3Cl)CC2)CC1
RP-LC retention time: 572 s

CC(C)N1C(=O)c2cccnc2Sc2cc(NC(=O)Cc3ccc(F)cc3)ccc21
RP-LC retention time: 867 s

Cc1cnc(C2CCC2)n1CC1CCCN(Cc2cn(C)c3ccccc23)C1 (stereo not drawn)
RP-LC retention time: 583 s

COc1ccc(OC)c(Nc2c(-c3ccc(C(=O)O)cc3)nc3cnccn23)c1
RP-LC retention time: 709 s

O=C(C1CCCN(c2ccc(N3CCOCC3)nn2)C1)N1CCN(c2ccccc2)CC1 (stereo not drawn)
RP-LC retention time: 635 s

Cc1ccc(-c2coc(-c3ccc(NC(=O)c4cccs4)cc3)n2)cc1
RP-LC retention time: 1170 s

CCc1nnc2ccc(-c3noc(-c4ccc(C)c(C)c4)n3)cn12
RP-LC retention time: 1140 s

CCOc1cc(S(=O)(=O)Nc2cccc3cn[nH]c23)ccc1Br
RP-LC retention time: 804 s

O=C(Nc1cnn(-c2ncc(N3CCCCC3)cn2)c1)c1ccncc1
RP-LC retention time: 662 s

CCN1CCN(CCNC(=O)C(C)n2c3ccccc3c3cnn(C)c(=O)c32)CC1 (stereo not drawn)
RP-LC retention time: 544 s

CCOC(=O)CC1=CC(SCC(=O)N2CCC(C)CC2)=Nc2ccccc2N1
RP-LC retention time: 1150 s

Fc1ccccc1CSc1ccc2nnc(-c3cccnc3)n2n1
RP-LC retention time: 680 s

O=C(CN1C(=O)C(C(=O)N2CCCC2)Sc2ccccc21)N1CCN(c2cccc(Cl)c2)CC1 (stereo not drawn)
RP-LC retention time: 923 s

Cc1cccc(NC(=O)Cc2cn(C)c3ncccc23)c1
RP-LC retention time: 722 s

CCC1(O)CCC12CCN(C(=O)C1CC1)CC2 (stereo not drawn)
RP-LC retention time: 678 s

CC(C)[C@@H]1NC(=O)[C@H](Cc2ccccc2)NC(=O)[C@@H](CC(=O)O)NC(=O)CNC(=O)[C@H](CCCN=C(N)N)NC1=O
RP-LC retention time: 624 s

CN(C)[C@@H]1CN(C(=O)CC2CCCCC2)CC[C@@H]1CO
RP-LC retention time: 615 s

O=C(NCc1cccnc1)C1CCCN(S(=O)(=O)c2cc(-c3noc(C4CCC4)n3)cs2)C1 (stereo not drawn)
RP-LC retention time: 825 s

Cc1ccc(CNC(=O)C2(C)CCN(C(=O)Nc3cc(Cl)ccc3C)CC2)cc1
RP-LC retention time: 936 s

CN1CCCc2cc(C(CNC(=O)C(=O)NCCC3=CCCCC3)N3CCCC3)ccc21 (stereo not drawn)
RP-LC retention time: 803 s

Cc1ccn2c(Nc3ccccc3C)c(-c3ccc(N(C)C)cc3)nc2c1
RP-LC retention time: 809 s

O=C(NCc1c(-c2ccc(Cl)cc2)nc2n1CCS2)c1ccco1
RP-LC retention time: 668 s

CCN(CC)CCNC(=O)c1cc(S(=O)(=O)N2CCCCCC2)ccc1Cl
RP-LC retention time: 656 s

Cn1cc(CC(=O)NCc2ccc(F)cc2F)c2cccnc21
RP-LC retention time: 688 s
